Among the data in US12479847B2 (DANA-FARBER CANCER INSTITUTE, INC., priority 2019, dated 2025) are remaining binding values, retold here.

Each structure is given as a SMILES string.

Holding throughout (assay): KINOMEscan (ScanMAX) kinase profiling
Common to all, as to assay type: binding

Assay [1] has as its target T1, panel of 468 kinases (Homo sapiens, UniProt Q8WXR4).
T1 construct: purchased KINOMEscan (ScanMAX) service
T1 sequence (Q8WXR4 1-1341): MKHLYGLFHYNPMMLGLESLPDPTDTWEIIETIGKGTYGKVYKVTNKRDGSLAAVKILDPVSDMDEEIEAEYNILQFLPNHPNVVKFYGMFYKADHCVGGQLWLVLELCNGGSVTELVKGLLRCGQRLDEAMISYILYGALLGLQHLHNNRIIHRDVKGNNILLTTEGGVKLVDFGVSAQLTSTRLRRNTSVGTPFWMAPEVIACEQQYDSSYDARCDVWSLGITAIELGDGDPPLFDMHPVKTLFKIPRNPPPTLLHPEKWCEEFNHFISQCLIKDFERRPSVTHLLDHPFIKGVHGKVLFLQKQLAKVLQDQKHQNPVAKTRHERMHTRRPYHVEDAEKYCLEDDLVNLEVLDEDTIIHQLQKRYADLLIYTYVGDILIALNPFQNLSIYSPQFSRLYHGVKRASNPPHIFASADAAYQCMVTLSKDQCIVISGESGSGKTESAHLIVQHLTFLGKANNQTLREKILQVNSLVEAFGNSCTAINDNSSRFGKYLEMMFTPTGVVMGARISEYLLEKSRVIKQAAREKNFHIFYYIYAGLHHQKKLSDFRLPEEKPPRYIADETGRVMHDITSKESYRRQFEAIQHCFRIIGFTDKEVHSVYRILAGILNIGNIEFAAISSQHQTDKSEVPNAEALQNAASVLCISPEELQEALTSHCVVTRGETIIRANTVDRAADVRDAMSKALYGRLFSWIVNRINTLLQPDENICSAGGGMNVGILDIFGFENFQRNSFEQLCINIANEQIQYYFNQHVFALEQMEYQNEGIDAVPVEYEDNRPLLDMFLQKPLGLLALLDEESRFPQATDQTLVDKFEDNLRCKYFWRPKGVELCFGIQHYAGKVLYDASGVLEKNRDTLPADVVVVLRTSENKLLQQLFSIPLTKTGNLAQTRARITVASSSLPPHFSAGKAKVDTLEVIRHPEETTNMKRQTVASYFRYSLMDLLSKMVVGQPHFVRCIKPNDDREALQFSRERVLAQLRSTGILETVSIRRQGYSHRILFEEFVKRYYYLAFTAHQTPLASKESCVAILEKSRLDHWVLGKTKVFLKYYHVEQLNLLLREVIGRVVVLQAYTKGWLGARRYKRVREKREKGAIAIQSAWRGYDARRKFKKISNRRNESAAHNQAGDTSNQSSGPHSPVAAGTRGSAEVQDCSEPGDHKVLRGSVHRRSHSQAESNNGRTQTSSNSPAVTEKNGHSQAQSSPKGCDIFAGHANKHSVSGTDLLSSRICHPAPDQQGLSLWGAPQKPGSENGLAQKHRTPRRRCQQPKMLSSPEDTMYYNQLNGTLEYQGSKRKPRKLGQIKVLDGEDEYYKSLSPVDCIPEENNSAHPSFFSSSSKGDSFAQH
Conditions: MYO3B; 1 μM; read-out: % control.

The target in assay [2] is T2, panel of 468 kinases (Homo sapiens, UniProt Q8WU08).
T2 construct: purchased KINOMEscan (ScanMAX) service
T2 sequence (Q8WU08 whole entry): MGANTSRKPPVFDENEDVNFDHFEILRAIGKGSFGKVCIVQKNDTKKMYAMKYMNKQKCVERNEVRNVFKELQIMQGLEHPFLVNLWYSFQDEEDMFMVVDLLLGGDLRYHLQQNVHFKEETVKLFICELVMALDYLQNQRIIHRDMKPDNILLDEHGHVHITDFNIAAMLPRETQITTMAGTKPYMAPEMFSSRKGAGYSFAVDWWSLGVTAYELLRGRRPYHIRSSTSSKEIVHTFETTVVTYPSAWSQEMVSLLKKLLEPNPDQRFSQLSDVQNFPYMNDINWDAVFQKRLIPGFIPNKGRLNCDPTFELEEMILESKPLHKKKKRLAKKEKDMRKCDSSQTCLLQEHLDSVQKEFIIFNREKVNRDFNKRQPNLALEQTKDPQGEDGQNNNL
The note with it: YANK1; 1 μM; read-out: % control.

Assay [3] deals with T3, panel of 468 kinases (Homo sapiens, UniProt P00519, M351T).
T3 construct: purchased KINOMEscan (ScanMAX) service
Conditions: ABL1(M351T)-phosphorylated; 1 μM; read-out: % control.

In assay [4] the target is T4, panel of 468 kinases (Homo sapiens, UniProt Q9UKI8).
T4 construct: purchased KINOMEscan (ScanMAX) service
T4 sequence (Q9UKI8 1-766): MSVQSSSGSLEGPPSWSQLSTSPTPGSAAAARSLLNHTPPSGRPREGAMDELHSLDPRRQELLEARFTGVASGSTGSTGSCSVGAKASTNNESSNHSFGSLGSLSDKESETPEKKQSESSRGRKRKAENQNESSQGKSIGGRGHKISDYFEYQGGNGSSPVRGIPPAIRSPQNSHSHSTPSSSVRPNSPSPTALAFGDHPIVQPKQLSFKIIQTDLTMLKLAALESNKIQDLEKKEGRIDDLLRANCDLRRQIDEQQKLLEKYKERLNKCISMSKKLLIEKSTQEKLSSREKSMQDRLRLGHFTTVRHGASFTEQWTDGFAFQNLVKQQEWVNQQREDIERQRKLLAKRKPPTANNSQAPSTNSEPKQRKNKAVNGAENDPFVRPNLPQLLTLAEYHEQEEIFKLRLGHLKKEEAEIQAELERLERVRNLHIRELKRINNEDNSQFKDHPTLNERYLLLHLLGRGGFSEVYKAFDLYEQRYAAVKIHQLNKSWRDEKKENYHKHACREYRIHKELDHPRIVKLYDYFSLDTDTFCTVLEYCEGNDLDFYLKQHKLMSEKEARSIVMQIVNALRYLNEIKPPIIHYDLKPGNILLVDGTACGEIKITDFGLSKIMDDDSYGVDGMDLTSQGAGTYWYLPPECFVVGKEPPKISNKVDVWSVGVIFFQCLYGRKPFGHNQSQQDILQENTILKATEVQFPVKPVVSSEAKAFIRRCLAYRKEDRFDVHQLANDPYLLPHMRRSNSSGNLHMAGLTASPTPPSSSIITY
The note with it: TLK1; 1 μM; read-out: % control.

Regarding `CNc1nc(Nc2ccc(S(=O)(=O)N3CCC(N4CCOCC4)CC3)cc2OC)nc2[nH]cc(Cl)c12` [Compound 12, 5-chloro-N2-(2-methoxy-4-((4-morpholinopiperidin-1-yl)sulfonyl)phenyl)-N4-methyl-7H-pyrrolo[2,3-d]pyrimidine-2,4-diamine], the remaining binding at 1 µM on panel of 468 kinases [1] is 95%; on panel of 468 kinases [2] it was 100%; at panel of 468 kinases [3] it was 64%; at panel of 468 kinases [4], 89%.

With `CNc1nc(Nc2ccc(P3(=O)CCN(C4CCOCC4)CC3)cc2OC)nc2[nH]cc(Cl)c12` [Compound 77, 4-(4-((5-chloro-4-(methylamino)-7H-pyrrolo[2,3-d]pyrimidin-2-yl)amino)-3-methoxyphenyl)-1-(tetrahydro-2H-pyran-4-yl)-1,4-azaphosphinane 4-oxide], the remaining binding at 1 µM at panel of 468 kinases [1] worked out at 100%; at panel of 468 kinases [2], 98%; at panel of 468 kinases [3] it was 70%; at panel of 468 kinases [4], 96%.

On to `CNc1nc(Nc2ccc(C(=O)N3CCC(N4CCOCC4)CC3)c3c2OCO3)nc2[nH]cc(Cl)c12` [Compound 75, (7-((5-chloro-4-(methylamino)-7H-pyrrolo[2,3-d]pyrimidin-2-yl)amino)benzo[d][1,3]dioxol-4-yl)(4-morpholinopiperidin-1-yl)methanone], for which the remaining binding at 1 µM at panel of 468 kinases [1] was 100%; at panel of 468 kinases [2], 100%; on panel of 468 kinases [3], 59%; on panel of 468 kinases [4] it was 86%.
